Values quoted from earlier work as cited in patent US9161929B2, “Solvent cast film sustained release latanoprost implant” (ALLERGAN, INC., priority 2011, dated 2015).

- solubility in acetone, ethanol, ethyl acetate, isopropanol, methanol and octanol: freely soluble
SMILES: CC(C)OC(=O)CCC/C=C\C[C@@H]1[C@@H](CC[C@@H](O)CCc2ccccc2)[C@H](O)C[C@@H]1O [Latanoprost]
